Read-outs that look alike come from different tables or passages of the source. Starred links: 1 amine or outer side, 2 acyl side, 3 side chain; linkers in the order of their positions; H or OH if unused. Non-standard residues stand in square brackets, D forms with d. Residues, ends and D or L forms follow the SMILES beside them. 2Furoyl(5-aminomethyl) = O=C(c1ccc(CN[*:1])o1)[*:2]; X1 = O=C(C1CCC(CN[*:1])O1)[*:2]
Columns and labels:
[1] = system: MiaPaCa.2 (human pancreas); assay: MTT cytotoxicity assay, MiaPaCa.2 cells; assay type: cell-based; details: 48 hours
Excerpt: (§1) The following cell lines were used.

[2] = system: PA1 (human ovary); assay: MTT cytotoxicity assay, PA1 cells; assay type: cell-based; details: 48 hours
Excerpt: as §1

[3] = system: ECV-304 (endothelial); details: ECV-304 cells, 48 hours, NA = Not Active
Excerpt: Although sterile phosphate buffered saline was used to prepare each stock solution for the testing described in the following example, other diluents may be used such as buffered saline, isotonic NaCl, Ringer's solution, water, distilled water, polyethylene glycol (neat or in water), Tween in water, dimethylsulfoxide up to 50% in water, propylene glycol (neat or in water), phosphate buffered saline, balanced salt solution, glycerol, and other conventional fluids that are suitable for parentral administration. To obtain a pH in the range of approximately 3.5 to 7.0, for each stock solution, the pH can be adjusted by using 1N HCl for lowering the pH or 1N NaOH for raising the pH, although other buffers such as citrate buffer, phosphate buffer and the like or other conventional agents for adjusting the pH can be used.
The MTT assay is based on the principle of uptake of MTT [3-[4,5-dimethylthiazol-2-yl]-2,5-diphenyl tetrazolium bromide], a tetrazolium salt, by the metabolically active cells where it is metabolized by active mitochondria into a blue colored formazan product which can be read spectrophotometrically. […] The formazan crystals formed inside the cells were dissolved with a detergent comprising of 10% Sodium dodecyl sulfate and 0.01 N HCl and optical density read on a multi-scan ELISA reader. The optical density was directly proportional to the number of proliferating and metabolically active cells. The following cell lines were used. PA1(human ovary), PTC (colon), HeP-2 (larynx), MiaPaCa.2 (human pancreas), KB (oral), ECV-304 (endothelial) and HeP-G2 (liver).

[4] = system: HeP-2 (larynx); assay: MTT cytotoxicity assay, HeP-2 cells; assay type: cell-based, human; details: human, 48 hours
Excerpt: as §1

[5] = system: KB (oral); assay: MTT cytotoxicity assay, KB cells; assay type: cell-based, human; details: human, 48 hours
Excerpt: as §1

[6] = system: PTC (colon); assay: MTT cytotoxicity assay, PTC cells; assay type: cell-based, human; details: human, 48 hours
Excerpt: as §1

[7] = system: HeP-G2 (liver); assay: MTT cytotoxicity assay, HeP-G2 cells; assay type: cell-based, human; details: human, 48 hours
Excerpt: as §1

Row | SMILES | Percent Cytotoxicity ([1]; human, 1 nM) | Percent Cytotoxicity ([1]; human, 10 nM) | Percent Cytotoxicity ([1]; human, 100 nM) | Percent Cytotoxicity ([2]; human, 1 nM) | Percent Cytotoxicity ([2]; human, 10 nM) | Percent Cytotoxicity ([2]; human, 100 nM) | Percent Cytotoxicity ([2]; human, 1 μM) | Percent Cytotoxicity ([3]; peptide 1 nM) | Percent Cytotoxicity ([3]; peptide 10 nM) | Percent Cytotoxicity ([3]; peptide 100 nM) | Percent Cytotoxicity ([4]; 1 nM) | Percent Cytotoxicity ([4]; 10 nM) | Percent Cytotoxicity ([4]; 100 nM) | Percent Cytotoxicity ([4]; 1 μM) | Percent Cytotoxicity ([5]; 1 nM) | Percent Cytotoxicity ([5]; 10 nM) | Percent Cytotoxicity ([5]; 100 nM) | Percent Cytotoxicity ([5]; 1 μM) | further results
1 | CSCC[C@H](NC(=O)[C@@H](N)CC(C)C)C(=O)N[C@@H](Cc1ccc(O)cc1)C(=O)NCc1ccc(C(=O)N[C@@H](Cc2ccc(O)cc2)C(=O)N[C@@H](CC(C)C)C(=O)N[C@@H](CCCCN)C(=O)O)o1 [SEQ ID NO: 10, Leu-Met-Tyr-Saa1-Tyr-Leu-Lys] (H-LMY[2Furoyl(5-aminomethyl)]YLK-OH) | 14.9 ± 1.9% | 12.0 ± 1.7% | 9.0 ± 0.6% | 37.5 ± 3.8% | 32.0 ± 2.9% | 31.0 ± 2.7% | 28.4 ± 2.2% | 15.2 ± 1.0% | 12.9 ± 0.5% | 9.4 ± 0.2% | 35.4 ± 2.9% | 32.0 ± 2.1% | 31.8 ± 3.1% | 28.9 ± 2.1% | 32.0 ± 2.5% | 31.9 ± 2.9% | 29.6 ± 0.7% | 26.0 ± 1.8% | Percent Cytotoxicity ([6]; 1 nM): 30.5 ± 3.2%; Percent Cytotoxicity ([6]; 10 nM): 28.0 ± 2.2%; Percent Cytotoxicity ([6]; 100 nM): 25.6 ± 2.2%; Percent Cytotoxicity ([6]; 1 μM): 21.8 ± 2.8%
2 | CSCC[C@H](NC(=O)[C@@H](N)CC(C)C)C(=O)N[C@@H](Cc1ccc(O)cc1)C(=O)NC[C@H]1O[C@H](C(=O)N[C@H](C(=O)N[C@@H](Cc2ccc(O)cc2)C(=O)N[C@@H](CC(C)C)C(=O)N[C@@H](CCCCN)C(=O)O)[C@@H](C)O)[C@@H](OCc2ccccc2)[C@@H]1OCc1ccccc1 [SEQ ID NO: 3, Leu-Met-Tyr-Saa2-Thr-Tyr-Leu-Lys] | 21.8 ± 2.1% | 24.0 ± 2.7% | 17.9 ± 1.8% | 16.8 ± 1.4% | 18.0 ± 1.8% | 12.5 ± 0.0% | 10.8 ± 0.6% | – | – | – | 12.6 ± 2.8% | 15.4 ± 1.3% | 13.9 ± 0.5% | 10.8 ± 0.5% | 12.9 ± 1.3% | 17.7 ± 0.5% | 14.9 ± 1.1% | 9.5 ± 0.1% | Percent Cytotoxicity ([1]; human, 1 μM): 13.9 ± 0.4%; Percent Cytotoxicity ([7]; 1 nM): 12.3 ± 0.4%; Percent Cytotoxicity ([7]; 10 nM): 10.7 ± 0.1%; Percent Cytotoxicity ([7]; 100 nM): 9.5 ± 1.0%; Percent Cytotoxicity ([7]; 1 μM): 6.9 ± 0.0%
3 | CSCC[C@H](NC(=O)[C@@H](N)CC(C)C)C(=O)NCC1CCC(C(=O)N[C@H](C(=O)N[C@@H](Cc2ccc(O)cc2)C(=O)N[C@@H](CC(C)C)C(=O)N[C@@H](CCCCN)C(=O)O)[C@@H](C)O)O1 (stereo partly drawn) [SEQ ID NO: 8, Leu-Met-Saa3-Thr-Tyr-Leu-Lys] (H-LM[X1]TYLK-OH) | – | – | – | – | – | – | – | 15.3 ± 1.6% | 12.7 ± 1.6% | 10.8 ± 2.9% | – | – | – | – | – | – | – | – | Percent Cytotoxicity ([1]; MiaPaCa.2 cells, peptide 1 nM, NA = Not Active): 22.9 ± 2.2%; Percent Cytotoxicity ([1]; MiaPaCa.2 cells, peptide 10 nM, NA = Not Active): 25.5 ± 2.9%; Percent Cytotoxicity ([1]; MiaPaCa.2 cells, peptide 100 nM, NA = Not Active): 22.9 ± 2.6%; Percent Cytotoxicity ([1]; MiaPaCa.2 cells, peptide 1 μM, NA = Not Active): 19.0 ± 0.6%; Percent Cytotoxicity ([2]; PA1 cells, peptide 1 nM, NA = Not Active): 12.7 ± 1.9%; Percent Cytotoxicity ([2]; PA1 cells, peptide 10 nM, NA = Not Active): 18.0 ± 1.0%; Percent Cytotoxicity ([2]; PA1 cells, peptide 100 nM, NA = Not Active): 14.8 ± 1.9%; Percent Cytotoxicity ([2]; PA1 cells, peptide 1 μM, NA = Not Active): 9.6 ± 1.0%; Percent Cytotoxicity ([3]; peptide 1 μM): 7.9 ± 0.1%

— patent US7060678B2, “Peptides comprising furanoid sugar amino acids for the treatment of cancer” (Dabur Research Foundation, priority 2003, dated 2006)
